Reference: PMC7076013 (Scientific Reports, 2020)

How the values were obtained:
[1] = test system: peritoneal resident macrophages; experiment: CV cytotoxicity for isolated macrophages; type: cell-based, C57BL/6 mice; conditions: crystal violet (CV) test
Procedure: Reagents were obtained from Sigma (St. Louis, MO) unless indicated otherwise. Annexin V - FITC (AnnV) was acquired from Biotium (Hayward, CA) and Apostat from R&D (R&D S ystems, Minneapolis, MN USA). […] After being detached b y tr ypsinization, cells were seeded in defined number as follows: 2.5 × 10^3 cells/well in 96-well plates for viability assessment and 2 × 10^4 cells/well in 24-well plates for flow cytometry. Peritoneal resident […]
(§1) for Biolo gical Research “Siniša Stanković” b y peritoneal lav age with an ice- cold phosphate buffer solution (PBS). The handling of animals and protocol for obtaining cells is in agreement with the rules of the European Union and approved by the Institutional Animal Care and Use Committee at IBISS (02- 09/1 6). Cells were counted and seeded in 96-well plates and incubat ed overnight. Before treatment, non- adherent cells were removed. Compounds 4a- c, 5 and 6 were dissolved in DMSO and stored at −20 °C for a m onth. Working solutions were freshl y prepared in 10% FCS-RPMI-1640. Controls were treated with culture medium containing the equivalent […]
(§2) 3.2. Cell viability tests.
(§3) The number of viable cel ls in culture was estimated by the MTT (3-(4,5- dimethylthiazol- 2-yl ) - 2,5- diphenyltetrazolium bromide) and CV (crystal violet) tests. Cells were incubated in the presence of compounds 4a- c, 5 and 6 for 48 h, then the viability was measured as described.4 […]
(§4) The results were ex pressed as a p er centage of a v alue obtained for the untr eated control cells that was arbitrarily set to be 100%. A non- linear regression analysis of obtained results was done b y using Gr aphPad Prism software to calculat e IC50 values. […]
14 Ligand molecules and one […]
protocol published earlier.16
Cell line Selectivity index

[2] = test system: SW480, human colon carcinoma; experiment: MTT cell viability, SW480; type: cell-based; conditions: 48 h
Procedure: (§5) Both melanoma and colon cancer are tumor types tightly connected with inflammation, while the expression of COX-2 in the selected cell lines was highly variable. Since a lot of discrepancies were found in the literature concerning the expression of this enzyme[5],[48]–[53], both COX-1 and COX-2 expression was analyzed by Western blot. […] The cells were treated with a wide range of doses of 4a–c, 5, and 6 for 48 h and cell viability was determined by MTT (3-(4,5-dimethylthiazol-2-yl)-2,5-diphenyltetrazolium bromide) and CV (crystal violet) assays. The obtained IC50 values were similar for both assays (Table 1).
(§6) Reagents were obtained from Sigma (St. Louis, MO) unless indicated otherwise. […]
(§7) S ystems, Minneapolis, MN USA). […] After being detached b y tr ypsinization, cells were seeded in defined number as follows: 2.5 × 10^3 cells/well in 96-well plates for viability assessment and 2 × 10^4 cells/well in 24-well plates for flow cytometry. […]
(§8) Before treatment, non- adherent cells were removed. Compounds 4a- c, 5 and 6 were dissolved in DMSO and stored at −20 °C for a m onth. Working solutions were freshl y prepared in 10% FCS-RPMI-1640. Controls were treated with culture medium containing the equivalent […]
as §2, §3, §4

[3] = molecular target: T1, ovine COX-1 (Ovis aries, UniProt P05979); experiment: COX Fluorescent Inhibitor Screening Assay, COX-1; type: biochemical; conditions: ovine COX-1, Cayman kit 700100
T1 construct: purchased Cayman Chemical Item No. 700100 (assay kit)
T1 sequence (P05979 25-600): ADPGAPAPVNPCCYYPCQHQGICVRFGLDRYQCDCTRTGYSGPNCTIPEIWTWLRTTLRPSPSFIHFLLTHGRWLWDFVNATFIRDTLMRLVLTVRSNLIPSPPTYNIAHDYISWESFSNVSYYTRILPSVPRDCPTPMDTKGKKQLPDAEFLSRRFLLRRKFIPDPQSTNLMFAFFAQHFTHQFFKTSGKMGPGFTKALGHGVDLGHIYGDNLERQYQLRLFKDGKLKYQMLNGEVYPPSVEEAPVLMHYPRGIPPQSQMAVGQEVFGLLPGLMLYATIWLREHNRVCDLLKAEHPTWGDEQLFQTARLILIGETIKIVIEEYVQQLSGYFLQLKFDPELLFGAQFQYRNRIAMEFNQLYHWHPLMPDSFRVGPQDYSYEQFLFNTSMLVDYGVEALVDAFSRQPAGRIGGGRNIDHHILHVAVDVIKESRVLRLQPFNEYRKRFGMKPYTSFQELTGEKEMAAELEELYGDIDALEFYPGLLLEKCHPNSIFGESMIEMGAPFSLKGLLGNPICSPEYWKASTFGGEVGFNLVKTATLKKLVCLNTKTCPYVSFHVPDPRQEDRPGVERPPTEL
Procedure: The synthesized compounds were tested in vitro for their potential to inhibit ovine COX-1 and human recombinant COX-2.
*All compounds were measured with the Cytation 5 plate reader and the "COX Fluorescent Inhibitor […]
chemi cals, USA) " according to the manufacturer's
Error bars indicate standard error mean (SEM) obtained from two measurements at each concentration.
(1 picture or pasted object on this page, not shown here)

[4] = test system: SW480, human colon carcinoma; experiment: CV (crystal violet) cell viability, SW480; type: cell-based; conditions: for IC50: 48 h; for Selectivity index SW480: IC50 macrophages / IC50 cancer
Procedure: as §5, §6
S ystems, Minneapolis, MN USA). […] After being detached b y tr ypsinization, cells were seeded in defined number as follows: 2.5 × 10^3 cells/well in 96-well plates for viability assessment and 2 × 10^4 cells/well in 24-well plates for flow cytometry. Peritoneal resident […]
as §1, §2, §3, §4

[5] = test system: SW620, human colon carcinoma; experiment: MTT cell viability, SW620; type: cell-based; conditions: 48 h
Procedure: as §5, §6, §7, §8, §2, §3, §4

| Substance | IC50 [1] [µM] | IC50 [2] [µM] | IC50 [3] [µM] | IC50 [4] [µM] | Selectivity index SW480 [4] | IC50 [5] [µM] |
| --- | --- | --- | --- | --- | --- | --- |
| 4-[4-(hydroxymethyl)phenyl]-3-(1,2-dicarba-closo-dodecaboranyl)furan-2(5H)-one [Compound 4c] | 66.2 ± 1.91 | 24.2 ± 1.05 | > 100 | 26.8 ± 2.81 | 2.5 | 35.7 ± 0.85 |
| 4-[4-(methylsulfonyl)phenyl]-3-(1,2-dicarba-closo-dodecaboranyl)furan-2(5H)-one [Compound 4b] | 65.7 ± 5.75 | 42.5 | > 100 | 35.9 | 1.8 | 19.2 ± 0.78 |
| R,S-7-(2-oxo-4-(4-sulfamoylphenyl)-2,5-dihydrofuran-3-yl)-7,8-dicarba-nido-dodeca-hydroundecaborate(–1) sodium [Compound 6] | – | > 50 | > 100 | > 50 | – | > 50 |
| 4-[4-(methylnitrooxy)phenyl]-3-(1,2-dicarba-closo-dodecaboranyl)furan-2(5 H)-one [Compound 5] | 37.1 ± 1.73 | 16.6 ± 1.01 | > 100 | 8.6 ± 0.21 | 4.3 | 10.5 ± 0.14 |
| 4-phenyl-3-(1,2-dicarba-closo-dodecaboranyl)furan-2(5 H)-one [Compound 4a] | 48.8 ± 1.2 | 22.8 ± 0.7 | > 100 | 19 ± 1.91 | 2.6 | 24.7 ± 0.42 |
